36 compounds from patent US20100105680A1, “SUBSTITUTED DIMETHYLCYCLOBUTYL COMPOUNDS, THEIR PREPARATION AND USE IN MEDICAMENTS” (priority 2006, published 2010) can be followed below.

In the experiment the target is T1, sigma-1 receptor (Cavia porcellus, UniProt Q60492).
T1 construct: guinea pig brains were homogenized; from tissue; host or cells: guinea pig brain membranes
Nature of the experiment: Sigma-1 receptor binding ([3H]-(+)-pentazocine, brain membranes). The following applies: [3H]-(+)-pentazocine 0.5 nM, guinea pig brain membranes; for inhibition at 0.01 µM: read-out: Percent Inhibition Percent Concentration (μM) 0.0100 SIGMA-1 receptor; for inhibition at 0.1 µM: read-out: Percent Inhibition Percent Concentration (μM) 0.1000 SIGMA-1 receptor. The protocol:
Brain membrane preparation and binding assays for the sigma-1 receptor were performed as described (DeHaven-Hudkins et al., Characterization of the binding of [^3H]-(+)-pentazocine to recognition sites in guinea pig brain, Eur. J. Pharmacol. 227, 371-378) with some modifications.
In brief, guinea pig brains were homogenized in 10 vols. (w/v) of Tris-HCl 50 mM, 0.32 M sucrose, pH 7.4, with a Kinematica Polytron PT 3000 at 15000 r.p.m. for 30 s. The homogenate was centrifuged at 1000 g for 10 min at 4° C. and the supernatants collected and centrifuged again at 48000 g for 15 min at 4° C. The pellet was resuspended in 10 volumes of Tris-HCl buffer (50 mM, pH 7.4), incubated at 37° C. for 30 min, and centrifuged at 48000 g for 20 min at 4° C. Following this, the pellet was resuspended in fresh Tris-HCl buffer (50 mM, pH 7.4) and stored on ice until use.
Each assay tube contained 10 μL of [^3H]-(+)-pentazocine (final concentration of 0.5 nM), 900 μL of the tissue suspension to a final assay volume of 1 mL and a final tissue concentration of approximately 30 mg tissue net weight/mL. Non-specific binding was defined by addition of a final concentration of […] haloperidol. All tubes were incubated at 37° C. for 150 min before termination of the reaction by rapid filtration over Schleicher & Schuell GF 3362 glass fibre filters [previously soaked in a solution of 0.5% polyethylenimine for at least 1 h]. Filters were then washed with four times with 4 mL of cold Tris-HCl buffer (50 mM, pH 7.4). Following addition of scintillation cocktail, the samples were allowed to equilibrate overnight. The amount of bound radioactivity was determined by liquid scintillation spectrometry using a Wallac Winspectral 1414 liquid scintillation counter. Protein concentrations were determined by the method of Lowry et al. (Protein measurement with the Folin phenol reagent, J. Biol. Chem, 193, 265).
The binding of the compounds of the present invention to sigma-1 receptors was tested as described above.

[1] abbreviates: compound concentration 0.0100 μM.
Setting [2] is: compound concentration 0.1000 μM.

T1 sequence (Q60492 whole entry): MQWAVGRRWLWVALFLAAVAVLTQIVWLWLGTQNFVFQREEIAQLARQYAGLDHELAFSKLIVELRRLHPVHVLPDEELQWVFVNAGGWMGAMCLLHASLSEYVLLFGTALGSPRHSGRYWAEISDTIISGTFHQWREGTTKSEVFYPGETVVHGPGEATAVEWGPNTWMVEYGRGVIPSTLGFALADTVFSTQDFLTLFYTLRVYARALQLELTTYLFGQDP

The term Ki denotes the dissociation constant of the complex between target and ligand, obtained from inhibition or displacement. The low end stands for tighter binding, the high end for weaker binding. For the compound `CC1(C)[C@@H](CCOCc2ccccc2)C[C@H]1CN1CCCC1` [compound 33], the affinity, expressed as Ki, was 0.6 ± 0.2 nM. Moreover, under setting [1], the inhibition at 0.01 µM stood at 85.3%. Also, the inhibition at 0.1 µM under setting [2] worked out at 89.8%.
For the compound `CC1(C)[C@H](CCO)C[C@@H]1CN1CCOCC1` [compound 20], the inhibition at 0.01 µM under setting [1] turned out to be 31.5%. Besides, the inhibition at 0.1 µM under setting [2] came to 63.1%.
Consider `CC1(C)[C@@H](CCn2cncn2)C[C@H]1CN1CCOCC1` [compound 45], for which the inhibition at 0.01 µM under setting [1] was 10.3%. Further, the inhibition at 0.1 µM under setting [2] came to 28.4%.
Compound `C[C@@H]1CN(C[C@@H]2C[C@H](CCOCc3ccccc3)C2(C)C)C[C@H](C)O1` [compound 32] returned a Ki of 3.6 nM. Besides, the inhibition at 0.01 µM under setting [1] is 94.6%. For the same compound, the inhibition at 0.1 µM under setting [2] was 99.1%.
Compound `CC(O)(c1ccccc1)[C@@H]1C[C@H](CCN2CCOCC2)C1(C)C` (stereo partly shown) [compound 13] gave a Ki of 1.2 nM. The inhibition at 0.01 µM under setting [1] is 77.8%. The inhibition at 0.1 µM under setting [2] stood at 95.2%.
For the compound `CC1CCN(C[C@@H]2C[C@H](CCOCc3ccccc3)C2(C)C)CC1` [compound 28], affinity was put at a Ki of 5 nM. Besides, under setting [1], the inhibition at 0.01 µM was 93.5%. For the same compound, under setting [2], the inhibition at 0.1 µM came out at 100%.
As to `CC1(C)[C@H](CCOCc2ccccc2)C[C@@H]1CN1CCC(c2ccccc2)CC1` [compound 3], the inhibition at 0.01 µM under setting [1] turned out to be 30.2%. The inhibition at 0.1 µM under setting [2] is 97.7%.
For `CC1(C)[C@@H](CCN2CCC(c3ccccc3)CC2)C[C@H]1CN1CCCCC1` [compound 51], under setting [1], the inhibition at 0.01 µM amounted to 36.1%. Besides, the inhibition at 0.1 µM under setting [2] is 81.9%.
Turning to `CC1(C)[C@@H](CCn2cccn2)C[C@H]1CN1CCOCC1` [compound 44], the inhibition at 0.01 µM under setting [1] is 41.7%. For the same compound, the inhibition at 0.1 µM under setting [2] was 82.8%.
On to `CC1(C)[C@@H](CCn2cccn2)C[C@H]1CN1CCCCC1` [compound 49], for which the affinity corresponds to a Ki of 4.9 nM. Moreover, the inhibition at 0.01 µM under setting [1] came to 45.7%. In addition, the inhibition at 0.1 µM under setting [2] came to 92%.
Regarding `CC1(C)[C@@H](CCOCc2ccccc2)C[C@H]1CN1CCC(c2ccccc2)CC1` [compound 29], the Ki worked out at 16.6 nM. Moreover, under setting [1], the inhibition at 0.01 µM came out at 76.9%. The inhibition at 0.1 µM under setting [2] came out at 95.6%.
Turning to `CC1(C)[C@@H](COCc2ccccc2)C[C@H]1CN1CCCCC1` [compound 7], affinity was put at a Ki of 0.79 nM. Also, the inhibition at 0.01 µM under setting [1] worked out at 94.5%. In addition, the inhibition at 0.1 µM under setting [2] was found to be 101%.
The matching figures for `CC(O)(c1ccccc1)[C@@H]1C[C@H](CCN2CCCCC2)C1(C)C` (stereo partly shown) [compound 14]: 1.9 nM, 75.6% and 97.5%.
The matching figures for `CC1(C)[C@H](CCOCc2ccccc2)C[C@@H]1CN1CCOCC1` [compound 1]: 6.1 nM, 62.8% and 79.7%.
Compound `CC1(C)[C@@H](COCc2ccccc2)C[C@H]1CN1CCOCC1` [compound 6] had a Ki of 1.3 nM. Under setting [1], the inhibition at 0.01 µM was determined as 91%. Also, the inhibition at 0.1 µM under setting [2] turned out to be 98.4%.
In the case of `CC1(C)[C@H](COCc2ccccc2)C[C@@H]1CCN1CCCCC1` [compound 38], the Ki turned out to be 1.2 nM. Moreover, the inhibition at 0.01 µM under setting [1] was found to be 88.6%. Further, the inhibition at 0.1 µM under setting [2] came to 98.5%.
For `CC1(C)[C@H](COCc2ccccc2)C[C@@H]1CCN1CCOCC1` [compound 39], the Ki is 8.4 nM. Besides, the inhibition at 0.01 µM under setting [1] worked out at 94.1%. Besides, the inhibition at 0.1 µM under setting [2] was determined as 95.8%.
For `CC1(C)[C@@H](CCOc2ccccc2)C[C@H]1CN1CCCCC1` [compound 16] the same measures were 2.2 nM, 97.5% and 96.4%.
In the case of `CN1CCN(C[C@@H]2C[C@H](CCOCc3ccccc3)C2(C)C)CC1` [compound 34], affinity was put at a Ki of 3.6 nM. In addition, under setting [1], the inhibition at 0.01 µM came to 92.3%. For the same compound, the inhibition at 0.1 µM under setting [2] turned out to be 96.2%.
Regarding `CC1(C)[C@@H](CCN2CCC(Cc3ccccc3)CC2)C[C@H]1CN1CCCCC1` [compound 52], the inhibition at 0.01 µM under setting [1] was -0.6%. In addition, the inhibition at 0.1 µM under setting [2] was determined as 52.6%.
`CC1(C)[C@@H](COCc2ccccc2)C[C@H]1CN1CCN(c2ccccc2)CC1` [compound 9]: the affinity, expressed as Ki, was 14.6 nM. Also, the inhibition at 0.01 µM under setting [1] stood at 60%. In addition, the inhibition at 0.1 µM under setting [2] is 94.7%.
For the compound `CC1(C)[C@@H](CCOCc2ccccc2)C[C@H]1CN1CCN(c2ccccc2)CC1.O=C(O)C(=O)O` [compound 37], the Ki is 33.5 nM. The “Percent Inhibition Percent Concentration (μM) 0.0100 SIGMA-1 receptor” value under setting [1] was 79.7%. Also, the “Percent Inhibition Percent Concentration (μM) 0.1000 SIGMA-1 receptor” value under setting [2] is given as 98.8%.
Consider `CC1(C)[C@@H](CCO)C[C@H]1CN1CCC(c2ccccc2)CC1` [compound 22], for which the Ki came to 1.4 nM. Under setting [1], the inhibition at 0.01 µM is 91.9%. The inhibition at 0.1 µM under setting [2] turned out to be 96.8%.
For `C[C@@H]1CN(C[C@@H]2C[C@H](CCO)C2(C)C)C[C@H](C)O1` [compound 23], under setting [1], the inhibition at 0.01 µM turned out to be 27.6%. Further, under setting [2], the inhibition at 0.1 µM came out at 70.6%.
Take `COC(=O)C[C@H]1C[C@@H](CN2CCCCC2)C1(C)C` [compound 26]: under setting [1], the inhibition at 0.01 µM is 23.9%. The inhibition at 0.1 µM under setting [2] worked out at 50%.
On to `CN1CCN(C[C@H]2C[C@@H](CCOCc3ccccc3)C2(C)C)CC1` [compound 5], for which, under setting [1], the inhibition at 0.01 µM worked out at 42.5%. In addition, under setting [2], the inhibition at 0.1 µM was 92.4%.
As for `CC1(C)[C@@H](CCn2ccc3c2CCCC3=O)C[C@H]1CN1CCCCC1` [compound 53], the inhibition at 0.01 µM under setting [1] is -6.6%. In addition, the inhibition at 0.1 µM under setting [2] is 73.6%.
Consider `CC1(C)[C@H](CCOCc2ccccc2)C[C@@H]1CN1CCN(c2ccccc2)CC1` [compound 4], for which the inhibition at 0.01 µM under setting [1] was determined as 24.1%. The inhibition at 0.1 µM under setting [2] came out at 82.2%.
On to `CC1(C)[C@@H](CCOCc2ccccc2)C[C@H]1CN1CCOCC1` [compound 31], for which the affinity corresponds to a Ki of 1.7 nM. Besides, the inhibition at 0.01 µM under setting [1] was determined as 89.9%. The inhibition at 0.1 µM under setting [2] was 101%.
The compound `CC1(C)[C@H](CO)C[C@@H]1CCN1CCC(Cc2ccccc2)CC1` [compound 25] showed a Ki of 1.2 nM. Under setting [1], the inhibition at 0.01 µM came to 83%. For the same compound, the inhibition at 0.1 µM under setting [2] is 98.3%.
As for `CC1(C)[C@@H](CCN2CCc3ccccc3C2)C[C@H]1CN1CCCCC1` [compound 54], the Ki was 11.7 nM. Moreover, under setting [1], the inhibition at 0.01 µM worked out at 42.2%. The inhibition at 0.1 µM under setting [2] was determined as 87.1%.
Turning to `CC1(C)[C@@H](COCc2ccccc2)C[C@H]1CN1CCC(c2ccccc2)CC1` [compound 8], the Ki was found to be 10.9 nM. Moreover, the inhibition at 0.01 µM under setting [1] is 48.3%. Besides, under setting [2], the inhibition at 0.1 µM was determined as 101%.
`CC1(C)[C@@H](CCO)C[C@H]1CN1CCOCC1` [compound 19]: the inhibition at 0.01 µM under setting [1] is 17.1%. Moreover, the inhibition at 0.1 µM under setting [2] worked out at 42.3%.
As to `CC1(C)[C@H](CCO)C[C@@H]1CN1CCCCC1` [compound 18], the inhibition at 0.01 µM under setting [1] was -21.4%. Besides, under setting [2], the inhibition at 0.1 µM amounted to 44.8%.
The compound `CC1(C)[C@@H](CCOc2ccccc2)C[C@H]1CN1CCOCC1` [compound 15] returned a Ki of 4.2 nM. The inhibition at 0.01 µM under setting [1] came out at 93.6%. The inhibition at 0.1 µM under setting [2] came out at 95.4%.
`CC1(C)[C@@H](CCN2CCC(Cc3ccccc3)CC2)C[C@H]1CN1CCOCC1` [compound 42]: under setting [1], the inhibition at 0.01 µM was determined as 19.7%. For the same compound, the inhibition at 0.1 µM under setting [2] was 88%.
